Laboratory results as given in article PMC4165891, “A Cell-Based High-Throughput Screen for Novel Chemical Inducers of Fetal Hemoglobin for Treatment of Hemoglobinopathies” (PLoS ONE, 2014).

How the values were obtained:
[1] = test system: human γ-globin gene expression; test: qRT-PCR of γ-globin mRNA in CID-dependent wild-type β-YAC BMCs; format: cell-based, mouse; settings: 48 hours; NaB 2 mM; #7 50 µM; #42 15 µM; #87 100 µM; #125 30 µM; #157 100 µM; #208 25 µM
Description: (§1) Human erythroid progenitors were generated in vitro from adult CD34^+ stem cells (STEMCELL Technologies, Inc., Vancouver, Canada) using a 2-stage culture system that achieves terminal erythroid differentiation. Standard, but variant, methods for quantitative reverse transcription-PCR (qRT-PCR) and flow-activated cell sorting (FACS) were employed for the two cell types as detailed in File S1. ELISA was used to measure HbF in CID-dependent wild-type β-YAC BMCs as described in the supplement.
Quantitative reverse transcription-PCR (qRT-PCR). In each experiment, treated and non-treated samples were analyzed in duplicate, 48 hours post-treatment, using SYBR Green dye in a CFX96 instrument (Bio-Rad, Hercules, CA). Expression of γ- and β-globin was calculated using relative quantification, as previously described, [7], using samples from β-YAC transgenic mice as controls. PCR primer sequences utilized for expression studies were: Hu-γ1, 5’-[…]-3’; Hu-γ2, 5’-[…]-3’; β-globin FWD, 5’-[…]-3’; β-globin REV, 5’-[…]-3’; Mo-Gapdh FWD, 5’-[…]-3’; Mo-Gapdh REV, 5’-[…]-3’; Mo-α-globin FWD, 5’-[…]-3’; Mo-α-globin REV, 5’-[…]-3’. Murine Gapdh and α-globin gene expression were used as internal controls for the human β-like globin gene expression. Mean and standard error of the mean were calculated. The Student’s t-test was used to determine statistical significance at P < 0.05 and P < 0.01.

[2] = test system: γ-globin promoter-firefly luciferase; test: γ-globin promoter-firefly luciferase induction in CID-dependent dual luc β-YAC BMCs (HTS and dose-response reconfirmation); format: cell-based, mouse; settings: for fold induction of firefly luciferase by positive control: 2 mM, 24 hours, over DMSO treated controls, primary HTS plates; for responsiveness of dual luc β-YAC BMCs to known γ-globin inducers: data not shown
Procedure: For HTS experiments, the dual luc β-YAC BMCs were seeded into 384-well plates (Greiner Bio-One, Monroe, NC) at a density of 10,000 cells/30 µl/well by Wellmate bulk dispenser (ThermoScientific Inc., Waltham, MA) in complete media containing the CID, CL-COB-II-293 (synthesized by the University of Kansas COBRE CCET Core C Synthesis Lab, commonly called AP20187). The CID-dependent dual luc β-YAC BMCs were responsive to known γ-globin inducers including valproic acid, sodium butyrate, valeric acid and hydroxyurea (data not shown). Sodium butyrate (2 mM) was selected as the positive control for screening, as a consistent 5–6 fold increase in firefly luciferase activity was obtained in four independent experiments with four different passage numbers. Since both the cell viability and luciferase induction was unaffected at DMSO concentrations below 0.5%, the compound libraries were screened at 10 µM concentration in 0.35% DMSO. Compounds were transferred acoustically using a Labcyte Echo 550 dispenser (Labcyte Inc., Sunnyvale, CA). Based on previous optimizations, 10,000 cells/well in IMDM containing CL-COB-II-293 (100 nM) were added to the wells of 384-well assay plates. The negative (n = 16, DMSO) and positive (n = 16, sodium butyrate, 2 mM) controls were added to the first two columns of each plate to assure uniformity across plates and screening batches. The cells were exposed to compounds for 24 hours at 37°C, 5% CO2 in a 95% humidified incubator. After 24 hours incubation, Steady Glo luciferase detection reagent (Promega, Madison, WI) was used for cell lysis and generation of a luminescent signal, proportional to γ-globin promoter driven firefly luciferase reporter expression. The luminescence intensities were read 30 minutes later on a Tecan Safire2 microplate reader (Tecan, Männedorf, Switzerland). The luminescence values were used for calculating fold-induction of luciferase over DMSO treated controls. The controls were used to calculate a Z′ factor value for each plate, a measure of screening assay quality.
The active compounds from the primary screen were cherry-picked from mother plates and retested for firefly luciferase induction in an eight concentration dose-response assay (two fold dilution starting at 30 µM). The fold-induction values from dose-response curves were used for preliminary scaffold analysis and clustering using the Tripos Selector program and analyzed using the Jarvis Patrick routine, using default parameters [The Tripos Associates (Cetara), St. Louis, MO]. From each preliminary cluster, the largest conserved substructure present in at least half of the cluster members was identified.
Some of the primary screen active compounds were repurchased and tested for activity in cell-based assays using the primary screening reporter cells in a ten concentration dose-response. Both firefly luciferase induction (γ-globin promoter activation using the One-Glo luciferase detection system; Promega, Madison, WI), and Renilla luciferase induction (β-globin induction the using Renilla-Glo Luciferase detection system; Promega, Madison, WI), were measured for specificity of compound activity. The cytotoxicity of the compounds was measured after 24 hours in the same cells using Cell-Titer Glo reagent (Promega, Madison, WI). The compounds were also tested in a biochemical screen for any inhibition to purified firefly luciferase enzyme (15 nM).

HbF-positive cells = test: FACS analysis of HbF-positive cells in human primary erythroid progenitors; format: cell-based; settings: 48 hours
Description: as §1
Human primary erythroid cell culture. Human erythroid progenitors were generated in vitro from adult CD34^+ stem cells (STEMCELL Technologies, Inc., Vancouver, Canada) using a 2-stage culture system that achieves terminal erythroid differentiation. Briefly, CD34^+ stem cells (500,000) were grown in First medium consisting of IMDM containing human AB serum, Interleukin-3 (IL-3,10 ng/ml), stem cell factor (SCF, 10 ng/ml) and erythropoietin (EPO, 2 IU/ml). On day 7 the erythroblasts were placed in Second medium consisting of 2 IU/mL erythropoietin for the duration of culture. […] Cell viability was monitored by trypan blue (0.4%) exclusion. […]
Flow-activated cell sorting (FACS). […] The labeled cells were analyzed using a Becton-Dickson LSR-II flow cytometer (BD Biosciences, San Jose, CA). […]

[3] = test system: γ-globin to β-globin (γ/β) ratio; test: qRT-PCR γ-globin/β-globin mRNA ratio in human primary erythroid progenitors; format: cell-based; settings: added day 8 for 48 hours; NaB 2 mM; #7 50 µM; #42 15 µM; #87 100 µM; #208 25 µM (Figure 6 legend)
Description: as §1
Human primary erythroid cell culture. Human erythroid progenitors were generated in vitro from adult CD34^+ stem cells (STEMCELL Technologies, Inc., Vancouver, Canada) using a 2-stage culture system that achieves terminal erythroid differentiation. […] Cell viability was monitored by trypan blue (0.4%) exclusion. […]
Quantitative reverse transcription-PCR (qRT-PCR). The mRNA levels of γ-globin, β-globin, and glyceraldehyde-3-phosphate dehydrogenase (GAPDH) were measured as previously published, [10]. […] The γ-globin, β-globin, and GAPDH mRNA levels were quantitated by Sybergreen qPCR using an iCycler iQ instrument (BioRad, Hercules, CA); standard curves were generated using a Topo7-based plasmid carrying the γ-globin, β-globin, or GAPDH cDNAs (Topo7-γ-globin, Topo7-β-globin, or Topo7-GAPDH, respectively).

[4] = test system: γ-globin (HbF)-expressing F cells; test: FACS analysis of HbF (F cells) in CID-dependent wild-type β-YAC BMCs; format: cell-based, mouse; settings: 48 hours; NaB 2 mM; #7 50 µM; #42 15 µM; #87 100 µM; #125 30 µM; #157 100 µM; #208 25 µM; untreated 0.7%
Description: as §1
Flow-activated cell sorting (FACS). Detection of HbF in CID-dependent wild-type β-YAC BMCs was performed by flow cytometric analysis. Briefly, 3 x 10^6 cells were cultured for 48 hours with or without treatment. Cells were washed in PBS and fixed in 1 ml 4% fresh paraformaldehyde (Sigma Aldrich, Saint Louis, MO). The cells were centrifuged, the supernatant discarded, and the pellets were resuspended in 1 ml ice cold acetone:methanol (4:1) for 1 minute. Cells were washed twice in ice-cold PBS/0.1% BSA and resuspended in 100 μl PBS/0.1% BSA/0.01% Tween 20 (PBT). One μg sheep anti-human HbF FITC-conjugated antibody (A80-136F, Bethyl Laboratories, Montgomery, TX) in 100 μl PBT was added to the cell suspension and incubated for 40 minutes at room temperature. […] Cells were analyzed using a BD LSRII Flow Cytometer (BD Biosciences, San Jose, CA) with a 530/30 nm (FITC/GFP) emission filter . […]

responsiveness of dual luc β-YAC BMCs to known γ-globin inducers [2]	Structure (SMILES)	γ-globin expression fold induction (qPCR) [1] [fold]	fold induction of firefly luciferase by positive control [2]	fold induction of firefly luciferase by positive control ([2]; listed as sodium butyrate) [fold]	fold increase in % HbF-positive cells (HbF-positive cells) [fold]	γ-globin to β-globin (γ/β) mRNA ratio fold increase compared to DMSO [3] [fold]	% F cells (FACS, gate P3) [4] [%]
responsive	NC(=O)NO [hydroxyurea]						
responsive	CCCCC(=O)O [valeric acid]						
responsive	CCCC(CCC)C(=O)O [valproic acid]						

Structure (SMILES)	responsiveness of dual luc β-YAC BMCs to known γ-globin inducers [2]	γ-globin expression fold induction (qPCR) [1] [fold]	fold induction of firefly luciferase by positive control [2]	fold induction of firefly luciferase by positive control ([2]; listed as sodium butyrate) [fold]	fold increase in % HbF-positive cells (HbF-positive cells) [fold]	γ-globin to β-globin (γ/β) mRNA ratio fold increase compared to DMSO [3] [fold]	% F cells (FACS, gate P3) [4] [%]
CCCC(=O)[O-].[Na+] [Sodium butyrate]	responsive	9.9	5–6 fold	6.3±0.7	7	1.8	15.9
